Measured values as given in patent US20240383882A1 (Ecstasy LLC, priority 2020, published 2024).
Counter-ions that a name gives are not always drawn. Like-named read-outs stand apart in the source and are kept apart here.

System: male C57BL/6 mice
Assay: 55° C. warm-water tail-flick test (antinociception)
Type: in vivo
Conditions: Mus musculus
Summary of the method: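 Mice with baseline tail-flick latency within 2 s at 55° C received compound s.c. and were retested at 30, 60, 90 and 120 min. % antinociception = 100×(test−control latency)/(20−control latency); ED50 in mg/kg.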

[1] = half maximal effective dose in mice, using one of: warm water tail-flick test, spared nerve injury, chronic constriction injury, or Complete Freund's adjuvant induced inflammatory pain (not stated which per compound), read-out: Biological Activity (ED50)
[2] = sc, 0.5 h, compounds of Table I, s.c., 30 min, 55° C. water, configuration tested as in Table II, read-out: ED50 (mg/kg) at 30 min on C57BL/6 mice in Warm-water Tail-flick Test
[3] = sc, 0.5 h, compounds of Table V, s.c., 30 min, 55° C. water, read-out: ED50 (mg/kg) at 30 min on C57BL/6 mice in Warm-water Tail-flick Test (same conditions as Table II)

Compound | ED50 [1] | ED50 [2] | ED50 [3]
CCOC(C(F)(F)F)(C(F)(F)F)[C@]1(CCc2ccc(C#N)cc2)CCN(Cc2cccnc2)C1 [Compound 9, (R)-4-(2-(3-(2-ethoxy-1,1,1,3,3,3-hexafluoropropan-2-yl)-1-(pyridin-3-ylmethyl)pyrrolidin-3-yl)ethyl) benzonitrile] | > 50 mg/kg |  | 
CCOC[C@]1(CCc2ccc(C#N)cc2)CCN(C(c2cccnc2)c2cccnc2)C1 [Compound 10, (R)-4-(2-(1-(di(pyridin-3-yl)methyl)-3-(ethoxymethyl)pyrrolidin-3-yl)ethyl) benzonitrile] | > 50 mg/kg |  | 
CCOC(C(F)(F)F)(C(F)(F)F)[C@]1(CCc2ccc(F)cc2)CCN(Cc2ccc(C)nc2)C1 [Compound 13, (R)-5-((3-(2-ethoxy-1,1,1,3,3,3-hexafluoropropan-2-yl)-3-(4-fluorophenethyl)pyrrolidin-1-yl)methyl)-2-methylpyridine] | > 50 mg/kg | ≤ 30 mg/kg | > 50 mg/kg
CCOC(C(F)(F)F)(C(F)(F)F)[C@]1(CCc2ccc(F)cc2)CCN(Cc2cccnc2)C1 [Compound 14, (R)-3-((3-(2-ethoxy-1,1,1,3,3,3-hexafluoropropan-2-yl)-3-(4-fluorophenethyl)pyrrolidin-1-yl)methyl)pyridine] | > 50 mg/kg |  | 
Cc1ccc(C(C)(C)N2CC[C@](CO)(CCc3ccc(F)cc3)C2)cn1 [Compound 15, (R)-(3-(4-fluorophenethyl)-1-(2-(6-methylpyridin-3-yl)propan-2-yl)pyrrolidin-3-yl)methanol] | ≤ 30 mg/kg |  | 
Cc1ccc(C(C)(C)N2CC[C@@](CCc3ccc(F)cc3)(CS(C)(=O)=O)C2)cn1 [Compound 16, (R)-5-(2-(3-(4-fluorophenethyl)-3-((methylsulfonyl)methyl)pyrrolidin-1-yl)propan-2-yl)-2-methylpyridine] | ≤ 30 mg/kg |  | 
Cc1ccc(C(C)(C)N2CC[C@@](CCc3ccc(C#N)cc3)(COCc3ccccc3)C2)cn1 [Compound 17, (R)-4-(2-(3-((benzyloxy)methyl)-1-(2-(6-methylpyridin-3-yl)propan-2-yl)pyrrolidin-3-yl)ethyl) benzonitrile] | ≤ 30 mg/kg |  | 
Cc1ccc(C(C)(C)N2CC[C@](CO)(CCc3ccc(C#N)cc3)C2)cn1 [Compound 18, (R)-4-(2-(3-(hydroxymethyl)-1-(2-(6-methylpyridin-3-yl)propan-2-yl)pyrrolidin-3-yl)ethyl) benzonitrile] | ≤ 30 mg/kg |  | 
Cc1ccc(C(C)(C)N2CC[C@@](CCc3ccc(C#N)cc3)(CS(C)(=O)=O)C2)cn1 [Compound 19, (R)-4-(2-(1-(2-(6-methylpyridin-3-yl)propan-2-yl)-3-((methylsulfonyl)methyl)pyrrolidin-3-yl)ethyl)benzonitrile] | ≤ 30 mg/kg |  | 
Cc1ccc(C(C)(C)N2CC[C@@](CCc3ccc(C#N)cc3)(COS(C)=O)C2)cn1 (stereo partly drawn) [Compound 20, ((R)-3-(4-cyanophenethyl)-1-(2-(6-methylpyridin-3-yl)propan-2-yl)pyrrolidin-3-yl)methyl methanesulfinate] | ≤ 30 mg/kg |  | 
CCOC(C(F)(F)F)(C(F)(F)F)[C@]1(CCc2ccc(C#N)cc2)CCN(C(C)(C)c2ccns2)C1 [Compound 22, (R)-4-(2-(3-(2-ethoxy-1,1,1,3,3,3-hexafluoropropan-2-yl)-1-(2-(isothiazol-5-yl)propan-2-yl)pyrrolidin-3-yl)ethyl) benzonitrile] | ≤ 30 mg/kg |  | 
CCOC(C(F)(F)F)(C(F)(F)F)[C@]1(COCc2ccccc2)CCN(C(C)(C)c2ccns2)C1 [Compound 23, (R)-5-(2-(3-((benzyloxy)methyl)-3-(2-ethoxy-1,1,1,3,3,3-hexafluoropropan-2-yl)pyrrolidin-1-yl)propan-2-yl)isothiazole] | > 50 mg/kg |  | 
CCOCC1(CCc2ccccc2)CCN(Cc2ccc(NC(=O)OC)cc2)CC1 [Compound 24] |  |  | > 50 mg/kg
COC(C(F)(F)F)(C(F)(F)F)[C@]1(COCc2ccccc2)CCN(C2(c3ncon3)COC2)C1 [Compound 24] | > 50 mg/kg |  | 
CCOC[C@]1(CCc2ccc(C#N)cc2)CCN(C(C)c2ccnnc2)C1 (stereo partly drawn) [Compound 25, 4-(2-((3R)-3-(ethoxymethyl)-1-(1-(pyridazin-4-yl)ethyl)pyrrolidin-3-yl)ethyl)benzonitrile] | ≤ 30 mg/kg |  | 
Cc1ccc(C(C)(C)N2CC[C@@](CCc3ccc(C#N)cc3)(COCC(F)(F)F)C2)cn1 [Compound 26, (R)-4-(2-(1-(2-(6-methylpyridin-3-yl)propan-2-yl)-3-((2,2,2-trifluoroethoxy)methyl)pyrrolidin-3-yl)ethyl)benzonitrile] | > 50 mg/kg |  | 
CCOC[C@@]1(CCc2ccc(C#N)cc2)CCN(C(c2cccnc2)c2cccnc2)C1 [Compound 27, (S)-4-(2-(1-(di(pyridin-3-yl)methyl)-3-(ethoxymethyl)pyrrolidin-3-yl)ethyl) benzonitrile] | > 50 mg/kg |  | 
CC(C)(c1ccc(C(F)(F)F)nc1)N1CC[C@@](CCc2ccc(C#N)cc2)(COCC(F)(F)F)C1 [Compound 28, (R)-4-(2-(3-((2,2,2-trifluoroethoxy)methyl)-1-(2-(6-(trifluoromethyl)pyridin-3-yl)propan-2-yl)pyrrolidin-3-yl)ethyl) benzonitrile] | > 50 mg/kg |  | 
CC(C)(c1ccc(S(C)(=O)=O)cc1)N1CC[C@@](CCc2ccc(F)cc2)(COCc2ccccc2)C1 [Compound 33, (R)-3-((benzyloxy)methyl)-3-(4-fluorophenethyl)-1-(2-(4-(methylsulfonyl)phenyl)propan-2-yl)pyrrolidine] | > 50 mg/kg |  | 
CCC(C)(c1ccc(S(C)(=O)=O)cc1)N1CC[C@@](CCc2ccc(F)cc2)(COCc2ccccc2)C1 (stereo partly drawn) [Compound 34, (3R)-3-((benzyloxy)methyl)-3-(4-fluorophenethyl)-1-(2-(4-(methylsulfonyl)phenyl)butan-2-yl)pyrrolidine] | > 50 mg/kg |  | 

Compound | ED50 [1] | ED50 [2] | ED50 [3]
CC(C)(c1ccc(Cl)cc1)N1CC[C@](CO)(CCc2ccc(S(C)(=O)=O)cc2)C1 [Compound 35, (R)-(1-(2-(4-chlorophenyl)propan-2-yl)-3-(4-(methylsulfonyl)phenethyl)pyrrolidin-3-yl)methanol] | > 50 mg/kg |  | 
CC(C)(c1ccc(S(C)(=O)=O)cc1)N1CC[C@](CO)(CCc2ccc(F)cc2)C1 [Compound 36, (R)-(3-(4-fluorophenethyl)-1-(2-(4-(methylsulfonyl)phenyl)propan-2-yl)pyrrolidin-3-yl)methanol] | > 50 mg/kg |  | 
CC(C)(c1ccc(Cl)cc1)N1CC[C@@](CCc2ccc(S(C)(=O)=O)cc2)(COCc2ccccc2)C1 [Compound 37, (R)-3-((benzyloxy)methyl)-1-(2-(4-chlorophenyl)propan-2-yl)-3-(4-(methylsulfonyl)phenethyl) pyrrolidine] | > 50 mg/kg |  | 
CSc1ccc(C(C)(C)N2CC[C@@](CCc3ccc(F)cc3)(COCc3ccccc3)C2)cc1 [Compound 40, (R)-3-((benzyloxy)methyl)-3-(4-fluorophenethyl)-1-(2-(4-(methylthio)phenyl)propan-2-yl)pyrrolidine] | > 50 mg/kg |  | 
CC(C)(c1ccccn1)N1CC[C@](CCc2ccc(C#N)cc2)([C@@H]2CCCO2)C1 [Compound 41, 4-(2-((S)-1-(2-(pyridin-2-yl)propan-2-yl)-3-((S)-tetrahydrofuran-2-yl)pyrrolidin-3-yl)ethyl) benzonitrile] | > 50 mg/kg | ≤ 30 mg/kg | 
COC[C@@]1(CCc2ccc(S(C)(=O)=O)cc2)CCN(C(C)(C)c2ccc(Cl)cc2)C1 [Compound 43] | > 50 mg/kg |  | 
CC(C)(c1ccc(Cl)cc1)N1CC[C@@](CO)(CCc2ccc(S(C)(=O)=O)cc2)C1 [Compound 44] | > 50 mg/kg |  | 
COC[C@@]1(CCc2ccc(S(C)(=O)=O)cc2)CCN(C(C)(C)c2ccc(Cl)cn2)C1 [Compound 45] | > 50 mg/kg |  | 
CCOC[C@@]1(CCc2ccc(S(C)(=O)=O)cc2)CCN(C(C)(C)c2ccc(Cl)cc2)C1 [Compound 51] | ≤ 30 mg/kg |  | 
CC(C)(c1ccccn1)N1CC[C@](CO)(CCc2ccc(S(C)(=O)=O)cc2)C1 [Compound 53] | > 50 mg/kg |  | 
COC[C@]1(CCc2ccc(C#N)cc2)CCN(C(C)(C)c2ccccn2)C1 [Compound 59] | > 50 mg/kg |  | 
CC(C)(O)[C@@]1(CCc2ccc(C#N)cc2)CCN(C(c2cccnc2)c2cccnc2)C1 [Compound 63] | > 50 mg/kg |  | 
N#Cc1ccc(CC[C@]2(CO)CCN(C(c3ccc(F)cc3)c3cccnc3)C2)cc1 (stereo partly drawn) [Compound 64] | > 50 mg/kg |  | 
Cc1ccc(N(C)N2CC[C@@](CO)(CCc3ccccc3)C2)cn1 [Compound 68] | > 50 mg/kg |  | 
CCOCC1(CCn2cnc3cnccc32)CCN(C(C)(C)c2ccc(C)nc2)C1 (stereo not drawn) [Compound 91, 1-(2-(3-(ethoxymethyl)-1-(2-(6-methylpyridin-3-yl)propan-2-yl)pyrrolidin-3-yl)ethyl)-1H-imidazo[4,5-c]pyridine citrate] |  | ≤ 30 mg/kg | 
CCOCC1(CCn2c(=O)[nH]c3cnccc32)CCN(C(C)(C)c2ccc(C)nc2)C1 (stereo not drawn) [Compound 92, 1-(2-(3-(ethoxymethyl)-1-(2-(6-methylpyridin-3-yl)propan-2-yl)pyrrolidin-3-yl)ethyl)-1,3-dihydro-2H-imidazo[4,5-c]pyridin-2-one citrate] |  | ≤ 30 mg/kg | 
CC(C)(c1ccccn1)N1CC[C@@](CCc2ccc(C#N)cc2)(C(=O)C(F)(F)F)C1 [Compound 100, (R)-4-(2-(1-(2-(pyridin-2-yl)propan-2-yl)-3-(2,2,2-trifluoroacetyl)pyrrolidin-3-yl)ethyl) benzonitrile] | > 50 mg/kg |  | 
CCOCC1(CCn2c(=O)n(CC(C)C)c3cc(F)c(F)cc32)CCN(C(C)(C)c2ccc(C)nc2)C1 (stereo not drawn) [Compound 100] |  | ≤ 30 mg/kg | 
CC(C)(c1ccccn1)N1CC[C@@](CCc2ccc(C#N)c(F)c2)(C(=O)C(F)(F)F)C1 [Compound 105, (R)-2-fluoro-4-(2-(1-(2-(pyridin-2-yl)propan-2-yl)-3-(2,2,2-trifluoroacetyl)pyrrolidin-3-yl)ethyl) benzonitrile] | > 50 mg/kg |  | 
